Source: patent US20180071280A1, “MODULATORS OF CELL DEATH PROCESSES” (URIFER LTD., priority 2015, published 2018)
Structures can show the parent of a compound that is named as a salt.

Experiments:
[1] = system: CC cells; assay: Apoptotic markers in treated CC cells (WB, ICC); type: cell-based, human
Experimental: (§1) WB analyses were carried out as previously described before. In brief, cells were lysed in RIPA buffer mixed with protease inhibitors and separated on SDS-PAGE gel, transferred to PVDF membrane treated with 5% skim milk to exclude non-specific background and incubated with a primary antibody over-night. The membrane was incubated for 1 h with a secondary antibody conjugated to Horseradish Peroxidase (HRP). The protein-antibody complex was visualized using the SuperSignal West Pico Chemiluminescent Substrate (Thermo scientific, USA).
Cells were fixed with 4% paraformaldehyde (30 min) and incubated with Permeabilization Solution containing 0.1% Triton X-100 (Sigma-Aldrich, Israel) in PBS at room temperature for 1 h. Nonspecific binding was blocked with PBS containing 10% fetal bovine serum for 1 h at room temperature. Cells were incubated with specific antibodies diluted 1:100 overnight at 4° C. […] Bound primary antibodies were detected by Alexa Fluor® 488 goat anti-mouse IgG antibody or Alexa Fluor® 594 goat anti-rabbit IgG antibody (Molecular Probes, Invitrogen, U.K.). […] Nonspecific staining, as determined by binding to the secondary antibody only, was negligible. The immunostained slides were examined under the fluorescence microscope AxioimagerZ1 (Zeiss, Germany) or confocal fluorescence microscope (Olympus-FV1000).

[2] = Toxicological and histopathological studies in mice; type: in vivo
Experimental: All animal experiments were performed according to the guidelines of the Institutional Animal Care and Use Committee of the Bar-Ilan University. Nude mice (Harlan, Israel) were transferred from ad libitum diet to a more strict diet 2 days before inoculation to lower blood glucose levels, and housed one per cage to ensure an even consumption of food. The diet was comprised of 3 g/mouse/day of standard chow, given at the same time every day. The food was consumed within an average time of 2 hours, consequently the mice were kept without food for the next 22 hours until the daily ration. The mice were kept on this diet throughout the experiment. Mice were inoculated with 1.5×10^6 SW620 CC cells and divided randomly into respective experimental groups. In brief, cells were harvested, counted under the microscope, concentrated by centrifugation (5 min at 500G) and re-suspended in Hank's balanced salt solution (Biological Industries, Israel). Before inoculation the cell suspension was mixed with Martial (BD biosciences, USA) in 1:1 ratio. Four days post-inoculation mice were randomized and placed in cages (n=4 per cage). Mice were injected intra-peritonealy every 12 h for 22 days with 25 mg/kg or 50 mg/kg of the micellar and non-micellar 0260 formulations, and control mice—with empty micelles or vehicles. Mice were sacrificed at day 22, tissues from relevant organs were fixed in paraffin, sectioned (7 μm sections) and stained with Hematoxylin and Eosin stain (H&E stain) for future histopathological evaluation. Blood samples were drawn from sacrificed mice.
Mice were sacrificed at day 22 of the xenograft experiments, as described above. Tissues from relevant organs and tumors were fixed in paraffin, sectioned (7 μm sections) and stained with Hematoxylin and Eosin stain (H&E stain) for histopathological evaluation as previously described. Blood samples were drawn by cardiac puncture. […] The serum was analyzed immediately using the Cobas 6000-501 chemistry analyzer (Roche Diagnostics, USA) according to the manufacturer's protocols for each assay.

[3] = system: mice sperm cells; assay: Sperm cell motility assay (CASA); type: cell-based; settings: 2 μM
Experimental: For isolation of spermatogenic cells, mice testes were removed from out-bred (ICR) mice and digested in Isolation Medium (DMEM with 2 mM glutamine, 1.5 mM sodium pyruvate, 10% fetal calf serum, 25 μg/ml ampicillin and 1× non-essential amino acids) with added 2 mg/ml collagenase (Sigma-Aldrich) for 5 min at 37° C., and washed twice. Extracellular DNA and proteins were removed with 1 unit/ml DNAse and 0.3 ml 0.5% trypsin at 37° C. for 5 min. Cells were filtered through a nylon mesh with 50 μm pores and incubated in Isolation Medium with 0260 or control for 24 h, and examined under the microscope. Mouse mature caudal spermatozoa were obtained by dissecting the cauda epididymis of male ICR mice and puncturing them in a dish containing 3 ml PBS to enable sperm release out of the epididymal tissue. The sperm suspension was filtered through a nylon mesh with 50 μm pores, centrifuged at 1000×g for 5 min and re-suspended in a buffer compatible with the experimental procedure.
Sperm cell motility was evaluated using the Computer-Aided Sperm Analysis (CASA). Samples (5 μl) were placed in standard count four chamber slide (Leja, Nieuw-Vennet, Netherlands) and analyzed by CASA device with IVOS software (version 12, Hamilton-Thorne Biosciences), acquiring up to ten sequels, 10 s long, for each sample, using parameters identifying mouse sperm motility. The proportion of hyper-activated ([…]) spermatozoa in each sample was determined using the SORT function of the CASA instrument. HAM was defined by curvilinear velocity (VCL)>90 μm/s, linearity (LIN) b20% and an amplitude of lateral head (ALH)>7 μm.

[4] = target: Fer (Homo sapiens, UniProt P16591); assay: Fer autophosphorylation in RKO CC cells (IP/WB); type: cell-based; parameters: endogenous in cells; settings: 24 h
Experimental: as §1
Protein lysates (1 mg) were prepared from tissues of adult mice according to previously described protocol, including incubation with Protein A Sepharose (GE Healthcare) to avoid nonspecific binding. Protein lysates were incubated with specific antibodies diluted 1:100 overnight at 4° C. Antigen-antibody complexes were precipitated with Protein A Sepharose, washed twice in PBS and eluted in Sample Buffer (2% SDS, 1% DTT 0.02% bromophenol blue 10% glycerol, 12.5 mM EDTA, 50 mM Tris-HCl pH 6.8) at room temperature for 10 min and at 100° C. for 8 min. Eluates were separated on SDS-PAGE and visualized by WB using specific antibodies.

[5] = target: T1, Fer-PARP-1 complex (Homo sapiens, UniProt P16591); assay: Co-immunoprecipitation of Fer and PARP-1 from SW620 nuclear lysates; type: cell-based
T1 construct: endogenous in cells; host or cells: SW620 cells, nuclear lysates
T1 sequence (P16591 whole entry, one chain of several): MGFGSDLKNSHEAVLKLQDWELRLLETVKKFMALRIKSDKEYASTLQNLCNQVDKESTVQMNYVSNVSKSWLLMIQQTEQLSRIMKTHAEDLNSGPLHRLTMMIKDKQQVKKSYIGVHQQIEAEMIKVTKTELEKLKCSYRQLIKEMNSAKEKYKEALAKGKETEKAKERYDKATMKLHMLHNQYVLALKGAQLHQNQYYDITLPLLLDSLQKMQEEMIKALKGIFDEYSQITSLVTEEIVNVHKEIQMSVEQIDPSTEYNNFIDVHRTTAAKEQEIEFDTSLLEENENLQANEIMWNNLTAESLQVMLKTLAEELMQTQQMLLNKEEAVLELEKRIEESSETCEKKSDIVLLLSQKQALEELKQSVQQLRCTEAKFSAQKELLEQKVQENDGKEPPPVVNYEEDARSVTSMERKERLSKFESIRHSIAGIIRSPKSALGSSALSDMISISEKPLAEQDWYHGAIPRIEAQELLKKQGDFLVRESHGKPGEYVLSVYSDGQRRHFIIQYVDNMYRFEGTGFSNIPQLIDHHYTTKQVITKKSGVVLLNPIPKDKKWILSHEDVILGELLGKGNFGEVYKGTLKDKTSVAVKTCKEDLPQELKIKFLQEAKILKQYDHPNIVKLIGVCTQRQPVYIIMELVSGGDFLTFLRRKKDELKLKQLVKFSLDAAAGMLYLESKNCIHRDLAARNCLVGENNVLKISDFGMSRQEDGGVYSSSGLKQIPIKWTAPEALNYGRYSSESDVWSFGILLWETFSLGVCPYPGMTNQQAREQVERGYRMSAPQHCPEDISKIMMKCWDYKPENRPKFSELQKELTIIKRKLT

Sequence of Fer (P16591 whole entry): as the sequence (P16591 whole entry, one chain of several) above

Structure (SMILES): CC(C)c1ccc(-c2cn3nc(N4CCC(CN5CCN(C)CC5)CC4)sc3n2)cc1 [compound 0260, tartarate salt of 6-(4-isopropyl-phenyl)-2-{4-[(4-methyl-piperazin-1-yl)methyl]piperidin-1-yl}-imidazo [2,1-b][1,3,4]thiadiazole]
- apoptotic markers (cleaved caspase 3, cleaved PARP-1, AIF translocation) [1]: not observed
- toxic effects (blood markers of liver and kidney functions, blood electrolytes) ([2]; daily injection): did not cause any toxic effects or adverse side effects
- histopathology of heart, kidneys and liver ([2]; mouse, in vivo): failed to detect any abnormalities related to toxicity
- effect on animal's weight ([2]; xenograft experiments): no significant effect
- percentage of sperm cells exhibiting progressive motility ([3]; 5 min): significantly decreased
- progressive motility ([3]; 30 min): practically reduced to zero
- total motility ([3]; 30 min): practically reduced to zero
- Fer autophosphorylation level in cells [4]: inhibitory effect
- association of Fer with PARP-1 [5]: dissociated Fer from PARP-1
